Experimental findings from patent US11944688B2, “Biologically active compounds” (SUTURA THERAPEUTICS LTD, priority 2015, dated 2024) are described below.

Positions of bridges follow the written chain, without caps; N, C: chain ends. Non-standard residues stand in square brackets, D forms with d. No end group written: not given here. {FITC} = fluorescein isothiocyanate label; S5 = C=CCCC[C@](C)(N)C(=O)O; {NH2} = amine group

The test system of data set [1] is HEK293T cells. The experiment in a line: Uptake into HEK293T cells by flow cytometry. It is filed as cell-based, human. The conditions noted are these: 4 hours. The protocol: FIG. 11 is the analysis of PMO uptake into HEK293T cells by flow cytometry. Cells were incubated without PMO or with 1 μM PMO, 1 μM PMO-C8M or 1 μM PMO-CP8M-NC (all fluorescein-labelled) at 37° C. for 4 hours. Fluorescence was measured after washing the cells with PBS.
HEK293T cells (Human embryonic kidney) were cultured in high glucose DMEM supplemented with 10% foetal calf serum (Sigma, UK) at 37° C. under an 8% CO2/92% air atmosphere.
(§1) U2OS cells were incubated with PMO or PMO-CP8M at increasing concentration (0.5 μM, 1.0 μM, 5.0 μM and 10 μM) with […] transfection reagent; H2K mdx mouse myoblasts were incubated with PMO or PMO-CP8M at 5.0 μM: HEK293T cells were incubated with CP8M (1.0 μM, 10 μM and 100 μM) and PMO, PMO-CP8M-NC, PMO-C8M at 1.0 μM. Levels of fluorescence was quantified at 494 nm to determine relative entry of respective compounds by microscopic or flow cytometry methodologies.
Uptake of fluorescently-labelled PMO was determined by flow cytometry using an Accuri C6 flow cytometer. PMO-transfected cells were released with trypsin, washed in PBS and kept on ice before analysis. Cell fluorescence in single live cells was determined using FlowJo software after appropriate gating. Untreated cells were used to establish gating settings for the determination of the % fluorescein-positive cells.
In general terms: In flow cytometry, cells or beads pass a laser one at a time.

The subject of data set [2] is U2OS cells. Put plainly: Delivery of fluorescently labelled PMO into U2OS cells, fluorescence microscopy. The format is cell-based, human. As to conditions: 0.5-10 μM, 4 hours, without transfection reagent. The protocol: The biologically active compound was a PMO with a sequence:
(an antisense reagent targeted to exon 23 of the mouse dystrophin gene, that causes the exclusion of exon 23 during mRNA splicing maturation); the bi-functional linker was a PEGylated SMCC; and the StaP was RKF-S5-RLF-S5 (SEQ ID NO: 57). This configuration of DCCPM is depicted as PMO-CP8M in the subsequent figs; unconjugated PMO acts as a control. All compounds were added to U2OS cells maintained in culture, without transfection reagent for 4 hours;
U2OS cells (Human osteosarcoma) were cultured in high glucose DMEM supplemented with 10% foetal calf serum (Sigma, UK) at 37° C. under an 8% CO2/92% air atmosphere.
as §1

Data set [3] has as its system H2K mdx mouse myoblasts. The experiment in a line: Delivery of fluorescently labelled PMO into H2K mdx myoblasts, fluorescence microscopy. The conditions noted are these: 5 μM, without transfection reagent. It is filed as cell-based. How it is done:
(§2) H2K mdx mouse myoblasts were cultured at 33° C. under a 8% CO2/92% air atmosphere in high-glucose DMEM supplemented with 20% foetal calf serum, 0.5% chicken embryo extract (PAA laboratories Ltd, Yeovil, UK), and 20 units/ml γ-interferon (Roche applied science, Penzberg, Germany). Cells were then treated with trypsin and plated at 8×10^4/cm^2 in 24-well plates coated with 0.1 mg/ml ECM gel (Sigma). H2K mdx cells were transfected 24 h after seeding with treatment in a final volume of 0.2 ml of normal growth media. Following 4 hours of transfection, the PMO or PMO-SAP was removed and replaced with DMEM supplemented with 5% horse serum. Fluorescence and RNA extraction was performed 48 hours post transfection.
as §1

Data set [4] relates to exon 23 of the mouse dystrophin gene. The experiment in a line: Exon 23 exclusion in H2K mdx cells, nested RT-PCR. The format is cell-based. The conditions noted are these: 5 μM, RT-PCR 901 bp full length / 688 bp exon 23 excluded. The protocol:
24 hours after incubation with PMO-CP8M or PMO, H2K mdx cells were recovered and RNA isolated. The RNA was reversed transcribed and an amplification between exon 20 and 26 of the mouse dystrophin gene, followed by a nested amplification between exon 20 and 26 was performed to yield a full length product of 901 bp fragment if exon 23 is present or 688 bp fragment if exon 23 is excluded;
as §2
Total RNA was isolated from H2K mdx mouse myoblasts cells (RNeasy, Qiagen, UK). […]

Data set [5] deals with dystrophin. Put plainly: Dystrophin immunostaining of Tibialis anterior after intramuscular injection in mdx mice. The format is in vivo. As to conditions: single intramuscular 2.2 nmol, 7 days post-administration, n=4. The protocol: Muscles were recovered 7 day post administration;
All dose are given in respect of the molarity of PMO;
(§3) mdx mice, with access to chow and water ad libitum, were used in all experiments. All experiments were carried out in the Animal unit, School of Biological Science, University of Reading, Reading, UK according to procedures authorized by the UK Home Office. Mice were killed by CO2 inhalation or cervical dislocation at desired time points, and muscles and other tissues were snap-frozen in liquid nitrogen-cooled isopentane and stored at −80° C.
(§4) Intramuscular administrations: Tibialis anterior muscles of mdx mice were injected with either 2.2 nmol PMO or 2.2 nmol PMO-CP8M under isoflurane anaesthesia. […]
(§5) For skeletal muscle, heart and brain, […] cryosections were cut and dystrophin protein was detected using rabbit polyclonal antibody to dystrophin (ab15277; Abcam, Cambridge, UK). […] For liver, […] cryosections were dried and embedded in fluorescence-compatible mounting medium (Dako), and general fluorescence was assessed microscopically at 494 nm.

For data set [6], the system named is dystrophin. The experiment in a line: Dystrophin immunostaining of heart muscle after intraperitoneal administration in mdx mice. The format is in vivo.
From the text: FIG. 18a is of mdx mice following a single intraperitoneal injection of 1 μmol/kg PMO-CP8M or 1 μmol/kg PMO. Muscles were recovered 7 days post administration;
FIG. 18b is following multiple intraperitoneal injections—total 7.6 μmol/kg PMO-CP8M or 7.6 μmol/kg PMO. Muscles were recovered 14 days post administration;
FIG. 18c is following multiple intraperitoneal injections—total 10.9 μmol/kg PMO-CP8M or 10.9 μmol/kg PMO;
FIG. 18d is a graphical representation of the number of cardiac muscle fibre being positive for an immuno-cytochemical staining for dystrophin following a multiple intraperitoneal injections—total 7.6 μmol/kg PMO-CP8M or 7.6 μmol/kg PMO; and
FIG. 18e is a graphical representation of the number of cardiac muscle fibre being positive for an immuno-cytochemical staining for dystrophin following multiple intraperitoneal injections—total 10.9 μmol/kg PMO-CP8M or 10.9 μmol/kg PMO. All dose are given in respect of the molarity of PMO [* denotes non fluorescent labelled PMO]. Hearts were recovered 14 days post administration;
Hearts were recovered 14 days post administration;
as §3, §4, §5

In data set [7] the test system is dystrophin. Put plainly: Dystrophin immunostaining of cerebellum after systemic administration in mdx mice. The format is in vivo. The conditions noted are these: single 1 μmol/kg intravenous, without fluorescent label, 7 days, n=1 per group. How it is done: All dose are given in respect of the molarity of PMO [* denotes non fluorescent labelled PMO]. Cerebella were recovered 7 days post administration; and
as §3, §4, §5

For the substance “CP8M: CPP sequence RKF-S5-RLF-S5 (SEQ ID NO: 57) with PEGylated SMCC as BFL (RKF[S5]RLF[S5]-NH2; staple 4-8; also: PEGylated SMCC as BFL, attachment not given here)”, in data set [1] (HEK293T, 1.0, 10 and 100 μM, without transfection reagent), the “cellular entry of FITC-labelled CP8M charge variants” value was “dose dependent increase”.
On to “PMO: PMO 5′GGCCAAACCTCGGCTTACCTGAAAT3′ targeted to exon 23 of mouse dystrophin gene; 5′ amine, 3′ FITC label; unconjugated control (all phosphorodiamidate morpholino (PMO), 5' {NH2}, 3' {FITC})”, for which the “fluorescence signal (cell entry)” value in data set [2] is on record as “only a background fluorescence signal”. The “cell entry of fluorescein-labelled PMO” value in data set [1] (HEK293T, 1 μM, 37° C.) is “refractory to cell entry”. Also, the muscle cell entry result in data set [3] was “refractory to muscle cell entry”. For the same substance, in data set [4], the “exclusion of exon 23 from the dystrophin transcript” value is recorded as “lack of exon exclusion”. For the same substance, the “percentage of dystrophin re-expression” value in data set [5] was 762.25. Further, in data set [6] (intraperitoneal total 7.6 μmol/kg over 4 days, without fluorescent label, 2 weeks post-administration, n=4, mean±SEM), the “dystrophin-positive heart muscle fibres, 7.6 μmol/kg” value stood at 57±17 fibres. Also, the “dystrophin-positive heart muscle fibres, 10.9 μmol/kg” value in data set [6] (intraperitoneal total 10.9 μmol/kg over 2 days, n=4, mean±SEM) is listed as 33±8 fibres. Besides, the “dystrophin-positive heart muscle fibres, single low dose” value in data set [6] (single intraperitoneal 1 μmol/kg, 7 days, n=1 per group) is “not”. In data set [7], the “dystrophin expression in Purkinje cells of cerebellum” value was “No dystrophin expression was observed”.
